Experimental data taken from ChEMBL document CHEMBL3414469, “Targeting DNA methylation with small molecules: what's next?” (J Med Chem, 2015).

Columns and labels:
[1] = target: DNA (cytosine-5)-methyltransferase 1 (Homo sapiens, UniProt P26358); test: Inhibition of His6-tagged human recombinant DNMT1 expressed in insect Sf9 cells assessed as reduction in DNA methyltransferase activity using 5'-biotinylated 45-bp unmethylated or hemimethylated oligonucleotide substrates and [3H]-AdoMet by liquid scintillation counting method
Chain of DNA (cytosine-5)-methyltransferase 1 (P26358 whole entry): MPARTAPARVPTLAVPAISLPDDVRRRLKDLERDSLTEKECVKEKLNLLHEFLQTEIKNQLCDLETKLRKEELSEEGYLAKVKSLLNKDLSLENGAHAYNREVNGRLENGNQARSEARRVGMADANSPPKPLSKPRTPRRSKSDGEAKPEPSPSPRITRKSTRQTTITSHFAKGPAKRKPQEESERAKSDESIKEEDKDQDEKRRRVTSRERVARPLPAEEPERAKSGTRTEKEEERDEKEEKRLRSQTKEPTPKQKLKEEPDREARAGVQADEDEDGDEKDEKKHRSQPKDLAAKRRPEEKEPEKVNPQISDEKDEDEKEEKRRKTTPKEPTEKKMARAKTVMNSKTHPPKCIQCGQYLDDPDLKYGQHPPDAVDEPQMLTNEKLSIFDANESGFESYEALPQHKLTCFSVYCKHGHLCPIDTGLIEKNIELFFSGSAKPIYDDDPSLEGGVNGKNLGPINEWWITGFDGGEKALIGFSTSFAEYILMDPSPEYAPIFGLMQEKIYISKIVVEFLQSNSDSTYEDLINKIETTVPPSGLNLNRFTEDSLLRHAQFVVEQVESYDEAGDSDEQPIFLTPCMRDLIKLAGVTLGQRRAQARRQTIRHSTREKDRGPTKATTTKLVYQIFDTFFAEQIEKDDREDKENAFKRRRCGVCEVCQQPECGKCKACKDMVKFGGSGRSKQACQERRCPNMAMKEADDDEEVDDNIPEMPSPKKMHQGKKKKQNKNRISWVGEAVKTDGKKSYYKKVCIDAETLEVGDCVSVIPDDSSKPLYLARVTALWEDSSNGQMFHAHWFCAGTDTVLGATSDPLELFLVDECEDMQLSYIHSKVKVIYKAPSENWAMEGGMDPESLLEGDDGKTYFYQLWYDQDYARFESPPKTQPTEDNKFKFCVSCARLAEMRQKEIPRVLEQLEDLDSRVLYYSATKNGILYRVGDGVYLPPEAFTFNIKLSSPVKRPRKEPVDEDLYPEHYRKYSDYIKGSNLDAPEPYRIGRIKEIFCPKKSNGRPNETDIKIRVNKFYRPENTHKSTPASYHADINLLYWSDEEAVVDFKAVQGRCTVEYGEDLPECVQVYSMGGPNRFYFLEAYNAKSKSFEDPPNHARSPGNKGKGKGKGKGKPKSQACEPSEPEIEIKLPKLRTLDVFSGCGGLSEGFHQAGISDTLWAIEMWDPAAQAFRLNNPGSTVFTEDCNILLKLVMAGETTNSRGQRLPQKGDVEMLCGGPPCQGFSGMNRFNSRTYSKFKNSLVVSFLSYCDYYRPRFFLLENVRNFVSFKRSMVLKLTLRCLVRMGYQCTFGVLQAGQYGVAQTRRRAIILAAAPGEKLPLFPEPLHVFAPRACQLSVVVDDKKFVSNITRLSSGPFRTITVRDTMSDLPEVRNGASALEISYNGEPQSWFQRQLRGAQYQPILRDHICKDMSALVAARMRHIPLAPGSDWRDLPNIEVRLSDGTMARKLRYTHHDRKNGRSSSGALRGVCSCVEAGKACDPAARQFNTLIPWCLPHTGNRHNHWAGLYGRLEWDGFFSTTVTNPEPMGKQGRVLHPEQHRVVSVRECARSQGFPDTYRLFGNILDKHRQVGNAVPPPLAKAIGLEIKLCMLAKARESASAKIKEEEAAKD

DNMT3A2/3L complex = DNMT3A2/3L complex (Homo sapiens, UniProt Q9Y6K1); test: Inhibition of His6-tagged human recombinant DNMT3A/DNMT3L expressed in insect Sf9 cells assessed as reduction in DNA methyltransferase activity using 5'-biotinylated 45-bp unmethylated or hemimethylated oligonucleotide substrates and [3H]-AdoMet by liquid scintillation counting method
Chain of DNMT3A2/3L complex (Q9Y6K1 whole entry, looked up, one chain of several): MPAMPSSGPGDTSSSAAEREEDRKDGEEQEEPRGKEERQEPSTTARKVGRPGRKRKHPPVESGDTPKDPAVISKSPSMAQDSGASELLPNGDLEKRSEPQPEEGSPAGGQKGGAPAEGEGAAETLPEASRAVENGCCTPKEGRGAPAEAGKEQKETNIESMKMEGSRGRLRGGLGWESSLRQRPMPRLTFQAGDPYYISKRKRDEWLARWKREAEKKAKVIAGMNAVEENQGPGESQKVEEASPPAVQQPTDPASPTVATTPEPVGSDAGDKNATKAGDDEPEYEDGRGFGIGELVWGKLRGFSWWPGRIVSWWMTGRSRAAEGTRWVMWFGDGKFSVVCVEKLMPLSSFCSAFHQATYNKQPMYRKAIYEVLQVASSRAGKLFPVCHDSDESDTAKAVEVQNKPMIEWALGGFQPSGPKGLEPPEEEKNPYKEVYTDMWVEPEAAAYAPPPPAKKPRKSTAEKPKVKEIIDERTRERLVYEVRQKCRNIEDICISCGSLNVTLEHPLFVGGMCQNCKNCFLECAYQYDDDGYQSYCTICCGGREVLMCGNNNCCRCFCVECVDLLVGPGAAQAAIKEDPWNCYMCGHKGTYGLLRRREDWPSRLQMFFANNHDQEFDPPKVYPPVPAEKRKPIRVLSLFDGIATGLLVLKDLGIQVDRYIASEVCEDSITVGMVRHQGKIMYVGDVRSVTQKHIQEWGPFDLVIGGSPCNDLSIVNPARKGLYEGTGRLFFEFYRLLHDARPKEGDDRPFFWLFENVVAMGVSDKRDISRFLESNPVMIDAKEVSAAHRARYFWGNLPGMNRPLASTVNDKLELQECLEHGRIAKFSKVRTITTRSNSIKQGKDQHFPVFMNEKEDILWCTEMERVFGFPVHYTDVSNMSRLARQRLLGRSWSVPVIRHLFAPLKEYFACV

[2] = target: DNA (cytosine-5)-methyltransferase 3B (Homo sapiens, UniProt Q9UBC3); test: Inhibition of His6-tagged human recombinant DNMT3b expressed in insect Sf9 cells assessed as reduction in DNA methyltransferase activity using 5'-biotinylated 45-bp unmethylated or hemimethylated oligonucleotide substrates and [3H]-AdoMet by liquid scintillation counting method
[3] = target: DNA (cytosine-5)-methyltransferase 3A (Homo sapiens, UniProt Q9Y6K1); test: Inhibition of His6-tagged human recombinant DNMT3a expressed in insect Sf9 cells assessed as reduction in DNA methyltransferase activity using 5'-biotinylated 45-bp unmethylated or hemimethylated oligonucleotide substrates and [3H]-AdoMet by liquid scintillation counting method
Chain of DNA (cytosine-5)-methyltransferase 3A (Q9Y6K1 whole entry, looked up): as the sequence (Q9Y6K1 whole entry, looked up, one chain of several) above

[4] = Half life in sc dosed patient with myelodysplastic syndrome; settings: human, in vivo
[5] = Half life in patient with myelodysplastic syndrome dosed via infusion; type: ADME, organism-based; settings: human, in vivo, iv

Row | IC50 [1] [µM] | IC50 (DNMT3A2/3L complex) [µM] | Structure (SMILES) | other results
1 | 20 |  | O=C(O)[C@H](Cc1c[nH]c2ccccc12)N1C(=O)C=CC1=O | 
2 | > 500 | > 300 | CCN(CC)CCNC(=O)c1ccc(N)cc1 [PROCAINAMIDE] | 
3 |  |  | C[C@@H]1O[C@@H](CC(=O)O)CC2=C1C(=O)c1c(O)cccc1C2=O [NANAFROCIN] | IC50 [2]: 0.5 µM
4 | 1.2 |  | O=[N+]([O-])c1cc(S(=O)(=O)Nc2ccc(O)c3ccccc23)ccc1Cl | IC50 [3]: 38 µM
5 | 4 | 21 | CCN(CC)CCNC(=O)c1ccc(NCCCCCCCCCCCCN2C(=O)c3ccccc3C2=O)cc1 | 
6 | 150 |  | O=[N+]([O-])c1ccc(C2=NC[C@H](CN3CCCC3)O2)cc1 | 
7 |  |  | Nc1ncn([C@@H]2O[C@H](CO)[C@@H](O)[C@H]2O)c(=O)n1 [AZACITIDINE] | half-life [4]: 41 min
8 |  |  | Cc1cc(Nc2ccc(NC(=O)c3ccc(Nc4ccnc5ccccc45)cc3)cc2)nc(N)n1 | IC50 [2]: 7.5 µM
9 | 30 | > 100 | O=c1c(-c2ccc(O)cc2)coc2cc(O)cc(O)c12 [GENISTEIN] | 
10 |  |  | Nc1ncn([C@H]2C[C@H](O)[C@@H](CO)O2)c(=O)n1 [DECITABINE] | half-life [5]: 10 min
11 |  | 315 | O=C(O)[C@H](Cc1c[nH]c2ccccc12)N1C(=O)c2ccccc2C1=O | 

Row | Structure (SMILES) | IC50 [1] [µM] | IC50 (DNMT3A2/3L complex) [µM] | other results
12 | O=C1C(Cl)=C(Cl)C(=O)c2ccccc21 [Dichlon] | 1.6 | 0.5 | 
13 | O=C(O[C@@H]1Cc2c(O)cc(O)cc2O[C@@H]1c1cc(O)c(O)c(O)c1)c1cc(O)c(O)c(O)c1 [EPIGALOCATECHIN GALLATE] | 0.5 |  | 
